pIC50: −log10 of the molar value.
Biological target: NLRP3 inflammasome (Homo sapiens (Human), UniProt Q96P20)
Test: Evaluation of NLRP3 inflammasome inhibitory activity (inhibition of IL-1β production in LPS/Nigericin-stimulated THP1-Null cells)
Type: cell-based
Conditions: IL-1β production in THP1-Null cells; for pIC50: PMA, LPS 1 μg/mL, Nigericin 7.5 μmol/L, AlphaLISA
Protocol: The NLRP3 inflammasome inhibitory activity of test compounds were evaluated on the basis of the inhibitory activity of the IL-1β production in THP1-Null cells (Product Number: thp-null, InvivoGen). […] The supernatant of the culture was removed, and thereto was added media for assay (25 μL/well) containing 1 μg/mL Lipopolysaccharides (Product Number: L2654, Sigma-Aldrich (registered trademark)). […] The supernatant of the culture was removed. […] A solution containing a test compound (20 μL/well) was added to test compound-setting wells. […] The supernatant of the culture was cryonically stored (set at −20° C.) until measurement of IL-1β.
The amount of IL-1β in the culture supernatant was quantitated with AlphaLISA(registered trademark) Human IL-1β Detection Kit (Product Number: AL220C, Perkin Elmer). Fluorescence intensity was measured with a microplate reader EnSpier (Model number: 2300-00J, Perkin Elmer) or EnSight(Model number: HH34000000, Perkin Elmer) according to procedure manuals attached thereto. Inhibition rates of the test compound-setting wells were calculated on the basis of 100% for the blank-setting wells and 0% for the control-setting wells.

NLRP3 inflammasome, sequence (Q96P20 whole entry): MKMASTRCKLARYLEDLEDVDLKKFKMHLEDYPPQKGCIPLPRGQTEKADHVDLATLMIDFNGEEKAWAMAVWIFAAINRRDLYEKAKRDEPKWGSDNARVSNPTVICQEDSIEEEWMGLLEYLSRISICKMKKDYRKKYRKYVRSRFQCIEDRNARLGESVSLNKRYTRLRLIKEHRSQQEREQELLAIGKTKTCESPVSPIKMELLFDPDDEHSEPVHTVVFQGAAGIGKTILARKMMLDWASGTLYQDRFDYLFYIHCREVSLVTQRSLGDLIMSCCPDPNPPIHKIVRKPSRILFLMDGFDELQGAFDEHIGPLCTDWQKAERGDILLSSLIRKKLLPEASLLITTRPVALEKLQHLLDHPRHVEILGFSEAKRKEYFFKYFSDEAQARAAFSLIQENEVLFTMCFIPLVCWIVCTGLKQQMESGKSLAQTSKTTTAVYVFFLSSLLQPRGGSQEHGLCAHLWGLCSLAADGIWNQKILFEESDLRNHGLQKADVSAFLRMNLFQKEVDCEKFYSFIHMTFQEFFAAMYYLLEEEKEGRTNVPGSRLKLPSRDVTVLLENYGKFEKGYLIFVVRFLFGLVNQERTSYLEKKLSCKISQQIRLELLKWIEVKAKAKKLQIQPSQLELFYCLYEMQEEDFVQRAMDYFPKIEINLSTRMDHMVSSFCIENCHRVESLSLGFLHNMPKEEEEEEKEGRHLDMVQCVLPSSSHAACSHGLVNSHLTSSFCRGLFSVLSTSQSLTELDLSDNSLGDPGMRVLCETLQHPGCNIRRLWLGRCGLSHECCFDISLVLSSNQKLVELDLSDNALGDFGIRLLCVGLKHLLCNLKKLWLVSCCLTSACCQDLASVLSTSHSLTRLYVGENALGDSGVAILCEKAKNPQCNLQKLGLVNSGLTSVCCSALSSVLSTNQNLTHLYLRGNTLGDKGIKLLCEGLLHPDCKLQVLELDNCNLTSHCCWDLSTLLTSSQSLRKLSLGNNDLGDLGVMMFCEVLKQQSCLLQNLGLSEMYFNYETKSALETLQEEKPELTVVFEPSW

SMILES	pIC50	also measured
Cc1ccccc1-n1cc2c(=O)[nH]c(N3CCC3(C)C)nc2n1 [Example 39]	5.15	
Cc1ccc(-n2cc3c(=O)[nH]c(N4CCCC4)nc3n2)cc1 [Example 40]	6.11	
COC[C@H]1CCCN1c1nc2nn(-c3ccccc3C)cc2c(=O)[nH]1 [Example 41]	5.39	
COC[C@@H]1CCCN1c1nc2nn(-c3ccccc3C)cc2c(=O)[nH]1 [Example 42]	5.38	
Cc1cccc(-n2cc3c(=O)[nH]c(N4CCCC4)nc3n2)c1 [Example 43]	5.47	
Cc1ccccc1-n1cc2c(=O)[nH]c(Nc3c4c(cc5c3CCC5)CCC4)nc2n1 [Example 44]		inhibition at 24 µM (test compound 24 μM): 21%
Cc1ccc(-n2cc3c(=O)[nH]c(N4CCCC4)nc3n2)c(C)c1 [Example 45]	7.15	
Cc1ccc(C)c(-n2cc3c(=O)[nH]c(N4CCCC4)nc3n2)c1 [Example 46]	6.54	
Cc1cccc(-n2cc3c(=O)[nH]c(N4CCCC4)nc3n2)c1C [Example 47]	6.64	
O=c1[nH]c(N2CCCC2)nc2nn(-c3ccc(C(F)(F)F)cc3)cc12 [Example 49]	6.47	
COC1CN(c2nc3nn(-c4c(C)cccc4C)cc3c(=O)[nH]2)C1 [Example 50]	5.92	
Cc1cccc(C)c1-n1cc2c(=O)[nH]c(N3CC(OCC(F)(F)F)C3)nc2n1 [Example 51]	5.66	
Cc1ccc(-n2cc3c(=O)[nH]c(N4CCCC4)nc3n2)cc1C [Example 52]	5.68	
Cc1cccc(C)c1-n1cc2c(=O)[nH]c(N3CC(C(F)(F)F)C3)nc2n1 [Example 53]	6.12	
Cc1ccc(-n2nc3nc(N4CCCC4)[nH]c(=O)c3c2C)c(C)c1 [Example 55]	6.64	
Cc1ccc(-n2cc3c(=O)[nH]c(N4CCOCC4)nc3n2)c(C)c1 [Example 58]	6.92	
COC1CN(c2nc3nn(-c4ccc(C)cc4C)cc3c(=O)[nH]2)C1 [Example 59]	6.43	
COCCNc1nc2nn(-c3ccc(C)cc3C)cc2c(=O)[nH]1 [Example 60]	6.62	
CCCCNc1nc2nn(-c3ccccc3C)cc2c(=O)[nH]1 [Example 61]	6.17	
Cc1cc(Br)ccc1-n1cc2c(=O)[nH]c(N3CCCC3)nc2n1 [Example 62]	8.04	
Cc1cc(C)c(-n2cc3c(=O)[nH]c(N4CCCC4)nc3n2)c(C)c1 [Example 63]	7.77	
Cc1cc(C)cc(-n2cc3c(=O)[nH]c(N4CCCC4)nc3n2)c1 [Example 64]	6.54	
CNc1nc2nn(-c3ccc(C)cc3C)cc2c(=O)[nH]1 [Example 65]	7.10	
CC(=O)N(C)c1nc2nn(-c3ccc(C)cc3C)cc2c(=O)[nH]1 [Example 66]	5.37	
Cc1cc(C2=CCCCC2)ccc1-n1cc2c(=O)[nH]c(N3CCCC3)nc2n1 [Example 67]	5.64	

SMILES	pIC50	also measured
O=c1[nH]c(N2CCCC2)nc2nn(-c3cccc4ccccc34)cc12 [Example 68]	5.92	
Cc1cc(Br)ccc1-n1cc2c(=O)[nH]c(N3CCOCC3)nc2n1 [Example 69]	7.62	
Cc1cc(C#N)ccc1-n1cc2c(=O)[nH]c(N3CCCC3)nc2n1 [Example 71]	5.92	
CC(=O)N1CCN(c2nc3nn(-c4ccc(Br)cc4C)cc3c(=O)[nH]2)CC1 [Example 73]	8.09	
Cc1cc(Br)ccc1-n1cc2c(=O)[nH]c(NCc3ccccc3)nc2n1 [Example 74]	7.60	
Cc1cc(Br)ccc1-n1cc2c(=O)[nH]c(N3Cc4ccccc4C3)nc2n1 [Example 75]	7.85	
Cc1cc(Br)ccc1-n1cc2c(=O)[nH]c(N3CC(F)(F)C3)nc2n1 [Example 76]	8.32	
Cc1cc(Br)cnc1-n1cc2c(=O)[nH]c(N3CCCC3)nc2n1 [Example 77]	7.31	
Cc1cc(Br)ccc1-n1cc2c(=O)[nH]c(N3CCNC(=O)C3)nc2n1 [Example 78]	7.55	
Cc1cc(Br)ccc1-n1cc2c(=O)[nH]c(N3CCS(=O)(=O)CC3)nc2n1 [Example 79]	8.23	
CNc1nc2nn(-c3ccc(C)cc3C)cc2c(=O)n1C [Example 80]	6.24	
C=C(C)c1ccc(-n2cc3c(=O)[nH]c(N4CCCC4)nc3n2)c(C)c1 [Example 81]	7.96	
Cc1cc(C2CC2)ccc1-n1cc2c(=O)[nH]c(N3CCCC3)nc2n1 [Example 82]	8.39	
Cc1cc(C(C)C)ccc1-n1cc2c(=O)[nH]c(N3CCCC3)nc2n1 [Example 83]	8.08	
Cc1ccc(-n2cc3c(=O)[nH]c(N4CCN(C)CC4)nc3n2)c(C)c1 [Example 84]	7.02	
Cc1ccc(-n2cc3c(=O)[nH]c(N4CC(F)(F)C(F)(F)C4)nc3n2)c(C)c1 [Example 85]	7.62	
O=c1[nH]c(N2CCCC2)nc2nn(-c3ccc(C(F)(F)F)cc3Cl)cc12 [Example 86]	8.54	
Cc1ccc(-n2cc3c(=O)[nH]c(N4CCCC4)nc3n2)c(Cl)c1 [Example 87]	8.29	
Cc1cc(Br)ccc1-n1cc2c(=O)n(C)c(N3CCOCC3)nc2n1 [Example 88, 2-(4-bromo-2-methylphenyl)-5-methyl-6-morpholino-2,5-dihydro-4H-pyrazolo[3,4-d]pyrimidin-4-one]	7.41	
COc1nc(N2CCOCC2)nc2nn(-c3ccc(Br)cc3C)cc12 [Example 89, 4-(2-(4-bromo-2-methylphenyl)-4-methoxy-2H-pyrazolo[3,4-d]pyrimidin-6-yl)morpholine]		inhibition at 0.024 µM (test compound 0.024 μM): 77%
Cc1cc(Br)ccc1-n1cc2c(=O)[nH]c(N3CCN(S(C)(=O)=O)CC3)nc2n1 [Example 91]	8.17	
Cc1cc(C)c(-n2cc3c(=O)[nH]c(N4CC(F)(F)C4)nc3n2)c(C)c1 [Example 92]	7.96	
Cc1cc(Cl)ccc1-n1cc2c(=O)[nH]c(N3CCCC3)nc2n1 [Example 95]	8.28	
Cc1cc(C)c(-n2cc3c(=O)[nH]c(N4CCOCC4)nc3n2)c(C)c1 [Example 96]	7.85	
O=c1[nH]c(N2CCCC2)nc2nn(-c3ccc(Cl)cc3F)cc12 [Example 97]	7.57	

SMILES	pIC50	also measured
Cc1cc(C(F)(F)F)ncc1-n1cc2c(=O)[nH]c(N3CCOCC3)nc2n1 [Example 98, 2-(4-methyl-6-(trifluoromethyl)pyridin-3-yl)-6-morpholino-2,5-dihydro-4H-pyrazolo[3,4-d]pyrimidin-4-one]	7.27	
Cc1cc(C(F)(F)F)ncc1-n1cc2c(=O)[nH]c(N3CC(F)(F)C3)nc2n1 [Example 99]	7.09	
Cc1cc(C)c(-n2cc3c(=O)[nH]c(N4CCCOCC4)nc3n2)c(C)c1 [Example 100]	7.70	
Cc1cc(C)c(-n2cc3c(=O)[nH]c(N4CCN(C(=O)OC(C)(C)C)CC4)nc3n2)c(C)c1 [Example 101]	8.25	
Cc1cc(C)c(-n2cc3c(=O)[nH]c(N4CCNCC4)nc3n2)c(C)c1 [Example 102]	6.89	
Cc1cc(C)c(-n2cc3c(=O)[nH]c(N4CCN(S(=O)(=O)C5CC5)CC4)nc3n2)c(C)c1 [Example 103]	8.19	
O=c1[nH]c(N2CCOCC2)nc2nn(-c3ccc(Br)cc3CO)cc12 [Example 104]	6.85	
Cc1cc(C)c(-n2cc3c(=O)[nH]c(N4CCC(O)CC4)nc3n2)c(C)c1 [Example 105]	7.19	
COC1CCN(c2nc3nn(-c4c(C)cc(C)cc4C)cc3c(=O)[nH]2)CC1 [Example 106]	7.02	
Cc1cc(C)c(-n2cc3c(=O)[nH]c(N4CC5C(C4)C5(F)F)nc3n2)c(C)c1 (stereo not drawn) [Example 114]	7.57	
Cc1cc(C)c(-n2cc3c(=O)[nH]c(N4CCC(CO)CC4)nc3n2)c(C)c1 [Example 115]	7.46	
Cc1cc(C)c(-n2cc3c(=O)[nH]c(N4CC5COCC5C4)nc3n2)c(C)c1 (stereo not drawn) [Example 117]	7.34	
Cc1cc(C)c(-n2cc3c(=O)[nH]c(N4CCC5(CC4)COC5)nc3n2)c(C)c1 [Example 118]	7.36	
C#Cc1ccc(-n2cc3c(=O)[nH]c(N4CCCC4)nc3n2)c(C)c1 [Example 119]	7.80	
CCc1ccc(-n2cc3c(=O)[nH]c(N4CCCC4)nc3n2)c(C)c1 [Example 120]	7.72	
Cc1nc(C(F)(F)F)ccc1-n1cc2c(=O)[nH]c(N3CCOCC3)nc2n1 [Example 121]	6.27	
Cc1cc(C(F)(F)F)cnc1-n1cc2c(=O)[nH]c(N3CCOCC3)nc2n1 [Example 122]	6.74	
Cc1cc(C(F)(F)F)cnc1-n1cc2c(=O)[nH]c(N3CC(F)(F)C3)nc2n1 [Example 123]	6.85	
Cc1cc(C2CC2)cc(C)c1-n1cc2c(=O)[nH]c(N3CCOCC3)nc2n1 [Example 124]	8.52	
Cc1cc(C2CC2)cc(C)c1-n1cc2c(=O)[nH]c(N3CCN(S(C)(=O)=O)CC3)nc2n1 [Example 125]		inhibition at 0.0024 µM (test compound 0.0024 μM): 52%
Cc1ccc(-n2cc3c(=O)[nH]c(N4CCOCC4)nc3n2)c(C)c1 [Example 126]	7.28	
O=c1[nH]c(N2CCCC2)nc2nn(-c3ccc(Cl)cc3Cl)cc12 [Example 127]	7.89	
O=c1[nH]c(N2CCOCC2)nc2nn(-c3ccc(C(F)(F)F)cc3Cl)cc12 [Example 128]	7.55	
O=c1[nH]c(N2CCCOCC2)nc2nn(-c3ccc(C(F)(F)F)cc3Cl)cc12 [Example 129]	7.46	
CC(=O)c1cc(Br)ccc1-n1cc2c(=O)[nH]c(N3CCOCC3)nc2n1 [Example 131]	7.20	

Reference: patent publication US20240287079A1, “6-AMINOPYRAZOLOPYRIMIDINE COMPOUND AND PHARMACEUTICAL USE THEREOF” (Japan Tobacco Inc., priority 2021, published 2024)
